The target of assay [1] is human recombinant sGC enzyme (Homo sapiens (Human), UniProt Q02108+Q02153). The experiment in a line: Size Exclusion Chromatography (SEC) competition binding assay using [3H] Ex-77B as the radioligand. As to conditions: [3H] Ex-77B radioligand, 24 hours at 37° C. The method, then:
Binding Assay: The binding potencies of sGC compounds to the human recombinant sGC enzyme were determined in a Size Exclusion Chromatography (SEC) competition binding assay using [^3H] Ex-77B as the radioligand. [^3H] Ex-77B was prepared using a standardardized tritium exchange procedure. The parent (non-labeled) molecule was first iodinated then a Pd-catalyzed iodine to tritium exchange provided the labeled compound. […] Assays were conducted in 96-well plates in a total volume of 200 μL. […] Non-specific binding was defined by competition with 1 μM of Ex-77B. After the incubation period, the binding mixtures were loaded onto the gel-filtration plate (ThermoFischer Cat. No. 89808) pre-equilibrated with binding buffer and spun at 1000×g for 3 min at 4° C. on a Bench top centrifuge. The collected eluates in White Frame Clear Well Isoplates (Perkin Elmer Cat #6005040) received 100 μl of UltimaGold scintillation cocktail. The sealed plates were shaken vigorously and span, and counted after 6 hours with a Wallac Microbeta TriLux 1450 LSC & Luminescence Counter (Perkin Elmer). Data from competition experiments were analyzed to determine Ki values using one site fit Ki equation.
(In general: SEC sorts molecules by how far they enter the pores of the column.)

The target in a further assay is sGC α1/β1 heterodimer (Homo sapiens (Human), UniProt Q02108+Q02153). The experiment in a line: Cell-based sGC functional assay (cyclic GMP assay for sGC activator: CASA assay). Details: % Activation: concentration or dose not given beside the values. The conditions noted are these: CHO-K1/sGC cells; for % Activation: activity expressed as percentage of compound A (standard); for EC50: inflection point, 4P fit, read-out: IP; for Emax: CHO-K1, activity expressed as percentage of compound A (standard), read-out: % Activation. An excerpt:
Cell-Based sGC Functional Assay (Cyclic GMP Assay for sGC Activator: CASA Assay)
Soluble guanylate cyclase (sGC) is a heme-containing enzyme that converts GTP to secondary messenger cGMP. Increases in cGMP levels affect several physiological processes including vasorelaxation through multiple downstream pathways. […] Heme-dependent activators (HDAs) preferentially activate sGC containing a ferrous heme group. To determine the effect of sGC activators on enzyme activity, the CASA assay was developed to monitor the generation of cGMP in a cell line that stably expresses the heterodimeric sGC protein.
A CHO-K1 cell line stably expressing the sGC α1/β1 heterodimer was generated using a standard transfection protocol. CHO-K1 cells were transfected with plasmids pIREShyghsGCα1 and pIRESneo-hsGCβ1 simultaneously using FUGENE reagent. Clones that stably express both subunits were selected with hygromycin and neomycin for ˜2 weeks. Clone #7 was chosen for the assay and was designated CHO-K1/sGC. CHO-K1/sGC cells were maintained in F-K12 medium containing 10% heat-inactivated Fetal Bovine Serum (FBS), 100 μg/mL penicillin/streptomycin, 0.5 mg/mL hygromycin and 0.25 mg/mL G418. The cells were then cryopreserved in LN2. On the day of the assay, the cells were thawed and resuspended in EBSS Assay Buffer (Sigma, E3024) supplemented with 5 mM MgCl2, 10 mM HEPES (4-(2-hydroxyethyl)piperazine-1-ethanesulfonic acid) and 0.05% BSA (bovine serum albumin) (EAB) and cell density was then adjusted to 2.25×10^5/mL with EAB. IBMX (3-isobutyl-1-methylxanthin, 0.5 mM) was added to inhibit degradation of cGMP. Compounds were diluted from DMSO stock solutions and added to the assay at a final DMSO concentration of 2.5%. Cells were pre-incubated in the presence and absence of 1 μM of Diethylenetriamine/nitric oxide adduct (DETA-NO; Sigma, 17018) for 30 min at 25° C. Compounds are subsequently added and incubated for 1 hr at 37° C. At the end of the incubation period, the reaction was terminated and the cells were lysed with the detection reagents from Cisbio Kits. The level of intracellular cGMP was determined using an HTRF-based assay kit (CisBio, 62GM2PEC), which detects the displacement of a fluorescence labeled cGMP from its specific antibody. The cGMP produced by test compounds was directly compared to the maximum cGMP production (this value was set to equal 100% activation.) of the published sGC-HDA compound A:
(Example 1 in WO 2010/065275, published Jun. 10, 2010). The test compounds' activity were then expressed as a percentage of compound A, the standard in every experiment. This percent activation was calculated either in the presence or absence of DETA-NO which was then plotted. Inflection points (IP) and maximum fold induction was derived using Abase analysis software for 4P fit.

One may read the Ki as a dissociation constant, usually derived from enzyme kinetics or from competition with a known ligand. On to `CC1CCC(Cn2nc(-c3nc(N)c4c(n3)NC(=O)[C@@]4(C)c3ccc(CCC(=O)O)cc3)c3ccc(Cl)cc32)CC1` (single isomer, unassigned) [Example 5BB], for which, in assay [1], the Ki amounted to 0.182 nM. Moreover, on sGC α1/β1 heterodimer, the “% Activation” value was determined as 107% and the EC50 was found to be 330 nM.
On to `C[C@@]1(c2ccc(CCC(=O)O)cc2)C(=O)Nc2nc(-c3nn(CC4CCCCO4)c4cc(Cl)ccc34)nc(N)c21` (single isomer, unassigned) [Example 6A], for which the Ki in assay [1] is 0.13 nM. On sGC α1/β1 heterodimer, the Emax amounted to 85% and the EC50 stood at 1260 nM.
The corresponding values for `COCCn1nc(-c2nc(N)c3c(n2)NC(=O)[C@@]3(C)c2ccc(CCC(=O)O)cc2)c2ccc(Cl)cc21` (single isomer, unassigned) [Example 40B] are 4.38 nM, 94% and 2560 nM.
The corresponding values for `C[C@@]1(c2ccc(CCC(=O)O)cc2)C(=O)Nc2nc(-c3nn(Cc4ncccc4F)c4cc(Cl)ccc34)nc(N)c21` (single isomer, unassigned) [Example 57B] are 0.096 nM, 104% and 1080 nM.
As for `C[C@@]1(c2ccc(CCC(=O)O)cc2)C(=O)Nc2nc(-c3nn(Cc4c(F)cccc4F)c4cc(Cl)ccc34)nc(N)c21` (single isomer, unassigned) [Example 64B], in assay [1], the Ki was determined as 0.075 nM. Moreover, at sGC α1/β1 heterodimer, the Emax was 101% and the EC50 was 302 nM.
The corresponding values for `CC(C)(Cc1csc([C@]2(C)C(=O)Nc3nc(-c4nn(CC5CCCCO5)c5ncccc45)nc(N)c32)n1)C(=O)O` (single isomer, unassigned) [Example 123AA] are 1.23 nM, 79% and 880 nM.
As for `CC(C)(Cc1csc([C@]2(C)C(=O)Nc3nc(-c4nn(CC5CCCCO5)c5ncccc45)nc(N)c32)n1)C(=O)O` (single isomer, unassigned) [Example 123AB], the Ki in assay [1] is 0.874 nM. For the same compound, on sGC α1/β1 heterodimer, the “% Activation” value turned out to be 95.8% and the EC50 was 1960 nM.
With `CC(C)(Cc1coc(C2(C)C(=O)Nc3nc(-c4nn(CC5CCCCO5)c5ncccc45)nc(N)c32)n1)C(=O)O` (single isomer, unassigned) [Example 124AA, 3-{2-[4-amino-5-methyl-6-oxo-2-{1-[tetrahydro-2H-pyran-2-ylmethyl]-1H-pyrazolo[3,4-b]pyridin-3-yl}-6,7-dihydro-5H-pyrrolo[2,3-d]pyrimidin-5-yl]-1,3-oxazol-4-yl}-2,2-dimethylpropanoic acid], in assay [1], the Ki worked out at 0.506 nM. In addition, at sGC α1/β1 heterodimer, the Emax amounted to 76.5% and the EC50 was determined as 1600 nM.
Turning to `CC1CCC(Cn2nc(-c3nc(N)c4c(n3)NC(=O)[C@@]4(C)c3nc(CC(C)(C)C(=O)O)cs3)c3cccnc32)CC1` (single isomer, unassigned) [Example 125AB], in assay [1], the Ki amounted to 0.336 nM. On sGC α1/β1 heterodimer, the Emax came to 138% and the EC50 turned out to be 56 nM.
As for `CC1CCC(Cn2nc(-c3nc(N)c4c(n3)NC(=O)C4(C)c3nc(CC(C)(C)C(=O)O)co3)c3cccnc32)CC1` (single isomer, unassigned) [Example 126AA, 3-{2-[4-amino-5-methyl-2-{1-[4-methylcyclohexylmethyl]-1H-pyrazolo[3,4-b]pyridin-3-yl}-6-oxo-6,7-dihydro-5H-pyrrolo[2,3-d]pyrimidin-5-yl]-1,3-oxazol-4-yl}-2,2-dimethylpropanoic acid], the Ki in assay [1] was 0.1 nM. Also, at sGC α1/β1 heterodimer, the “% Activation” value is listed as 89.0% and the EC50 turned out to be 74 nM.
In the same order, the values of `CC1CCC(Cn2nc(-c3nc(N)c4c(n3)NC(=O)C4(C)c3nc(CC(C)(C)C(=O)O)co3)c3cccnc32)CC1` (single isomer, unassigned) [Example 126AB, 3-{2-[4-amino-5-methyl-2-{1-[4-methylcyclohexylmethyl]-1H-pyrazolo[3,4-b]pyridin-3-yl}-6-oxo-6,7-dihydro-5H-pyrrolo[2,3-d]pyrimidin-5-yl]-1,3-oxazol-4-yl}-2,2-dimethylpropanoic acid] are 0.077 nM, 109.2% and 199 nM.
Take `CC1CCC(Cn2nc(-c3nc(N)c4c(n3)NC(=O)C4(C)c3nc(CC(C)(C)C(=O)O)co3)c3ccc(Cl)cc32)CC1` (single isomer, unassigned) [Example 132AA, 3-{2-[4-amino-2-{6-chloro-1-[4-methylcyclohexylmethyl]-1H-indazol-3-yl}-5-methyl-6-oxo-6,7-dihydro-5H-pyrrolo[2,3-d]pyrimidin-5-yl]-1,3-oxazol-4-yl}-2,2-dimethylpropanoic acid]: in assay [1], the Ki stood at 0.105 nM. Further, at sGC α1/β1 heterodimer, the Emax turned out to be 109% and the EC50 is 125 nM.
Regarding `CC1CCC(Cn2nc(-c3nc(N)c4c(n3)NC(=O)C4(C)c3nc(CC(C)(C)C(=O)O)co3)c3ccc(Cl)cc32)CC1` (single isomer, unassigned) [Example 132AB, 3-{2-[4-amino-2-{6-chloro-1-[4-methylcyclohexylmethyl]-1H-indazol-3-yl}-5-methyl-6-oxo-6,7-dihydro-5H-pyrrolo[2,3-d]pyrimidin-5-yl]-1,3-oxazol-4-yl}-2,2-dimethylpropanoic acid], the Ki in assay [1] stood at 0.074 nM. In addition, on sGC α1/β1 heterodimer, the “% Activation” value came to 109.2% and the EC50 came out at 89 nM.
As to `CC(C)(Cc1csc([C@]2(C)C(=O)Nc3nc(-c4nn(CC5CCCCO5)c5cc(F)ccc45)nc(N)c32)n1)C(=O)O` (single isomer, unassigned) [Example 133AA], the Ki in assay [1] came out at 0.513 nM. In addition, at sGC α1/β1 heterodimer, the Emax is 104% and the EC50 came to 657 nM.
Regarding `CC(C)(Cc1csc([C@]2(C)C(=O)Nc3nc(-c4nn(CC5CCCCO5)c5cc(F)ccc45)nc(N)c32)n1)C(=O)O` (single isomer, unassigned) [Example 133AB], the Ki in assay [1] was determined as 0.359 nM. On sGC α1/β1 heterodimer, the “% Activation” value is reported as 111.4% and the EC50 came to 714 nM.
In the case of `CC1(c2ccc(C(=O)O)cc2)C(=O)Nc2nc(-c3nn(CCC(F)(F)C(F)(F)F)c4cc(Cl)ccc34)nc(N)c21` (stereo not drawn) [Example 155B, 4-{4-amino-2-[6-chloro-1-(3,3,4,4,4-pentafluorobutyl)-1H-indazol-3-yl]-5-methyl-6-oxo-6,7-dihydro-5H-pyrrolo[2,3-d]pyrimidin-5-yl} benzoic acid], the Ki in assay [1] came to 0.42 nM.
Still for that read-out and setting: with `CC1(c2cc(C(=O)O)ccn2)C(=O)Nc2nc(-c3nn(Cc4ccccc4F)c4cc(Cl)ccc34)nc(N)c21` (stereo not drawn) [Example 219A, 2-{4-amino-2-[6-chloro-1-(2-fluorobenzyl)-1H-indazol-3-yl]-5-methyl-6-oxo-6,7-dihydro-5H-pyrrolo[2,3-d]pyrimidin-5-yl} pyridine-4-carboxylic acid] the figure was 0.183 nM; with `C[C@@]1(c2ccc(CCc3nn[nH]n3)cc2)C(=O)Nc2nc(-c3nn(Cc4ncccc4F)c4ccccc34)nc(N)c21` [Example 245B, (S)-5-{4-[2-(2H-tetrazol-5-yl)ethyl]phenyl}-4-amino-2-{1-[(3-fluoro-pyridin-2-yl)methyl]-1H-indazol-3-yl}-5-methyl-5,7-dihydro-6H-pyrrolo[2,3-d] pyrimidin-6-one], 0.333 nM.

Values taken from patent US10030027B2, “Soluble guanylate cyclase stimulators” (MERCK SHARP & DOHME CORP., priority 2015, dated 2018).
